#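 Cells were grown in 96-well plates and exposed to each compound for 48 hours at five concentrations; endpoints were interpolated linearly between bracketing concentrations, or set to the highest concentration if not reached. Here, GI50 denotes the concentration required for 50% inhibition of growth. TGI is the concentration that stops growth completely.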
# Tests used:
# Assay in all cases: DTP human tumour cell line panel, 48 h
# UACC-62 melanoma = tested on: UACC-62 melanoma
# HT29 colon = tested on: HT29 colon
# DU-145 prostate = tested on: DU-145 prostate
# SW-620 colon = tested on: SW-620 colon
# CAKI-1 renal = tested on: CAKI-1 renal
# NCI-H522 lung = tested on: NCI-H522 lung
# RPMI-8226 leukemia = tested on: RPMI-8226 leukemia
# M14 melanoma = tested on: M14 melanoma
# SK-OV-3 ovarian = tested on: SK-OV-3 ovarian
# HS 578T breast = tested on: HS 578T breast
# COLO 205 colon = tested on: COLO 205 colon
# BT-549 breast = tested on: BT-549 breast
# A498 renal = tested on: A498 renal
# T-47D breast = tested on: T-47D breast
# HL-60(TB) leukemia = tested on: HL-60(TB) leukemia
# MDA-MB-435 = tested on: MDA-MB-435
# SK-MEL-5 melanoma = tested on: SK-MEL-5 melanoma
# PC-3 prostate = tested on: PC-3 prostate
# NCI-H226 lung = tested on: NCI-H226 lung
# SF-539 CNS = tested on: SF-539 CNS
# SF-295 CNS = tested on: SF-295 CNS
# UACC-257 melanoma = tested on: UACC-257 melanoma
structure (smiles),measurement,setting,value
CC(=O)Oc1c(C)c(C)c2c(c1C)CCC(C)(CC(=O)OCCCCCCCCCCC[P+](c1ccccc1)(c1ccccc1)c1ccccc1)O2 (centres undefined),GI50,UACC-62 melanoma,291 nM
same,TGI,UACC-62 melanoma,982 nM
same,GI50,HT29 colon,707 nM
same,TGI,HT29 colon,2290 nM
same,GI50,DU-145 prostate,384 nM
same,TGI,DU-145 prostate,1340 nM
same,GI50,SW-620 colon,315 nM
same,TGI,SW-620 colon,1330 nM
same,GI50,CAKI-1 renal,1720 nM
same,TGI,CAKI-1 renal,3.27 µM
same,GI50,NCI-H522 lung,210 nM
same,TGI,NCI-H522 lung,666 nM
same,GI50,RPMI-8226 leukemia,237 nM
same,TGI,RPMI-8226 leukemia,1150 nM
same,GI50,M14 melanoma,408 nM
same,TGI,M14 melanoma,1560 nM
same,GI50,SK-OV-3 ovarian,264 nM
same,TGI,SK-OV-3 ovarian,932 nM
same,GI50,HS 578T breast,413 nM
same,TGI,HS 578T breast,3.28 µM
same,GI50,COLO 205 colon,391 nM
same,TGI,COLO 205 colon,1390 nM
same,GI50,BT-549 breast,314 nM
same,TGI,BT-549 breast,990 nM
same,GI50,A498 renal,385 nM
same,TGI,A498 renal,2000 nM
same,GI50,T-47D breast,72.7 nM
same,TGI,T-47D breast,736 nM
same,GI50,HL-60(TB) leukemia,228 nM
same,TGI,HL-60(TB) leukemia,926 nM
same,GI50,MDA-MB-435,310 nM
same,TGI,MDA-MB-435,1200 nM
same,GI50,SK-MEL-5 melanoma,191 nM
same,TGI,SK-MEL-5 melanoma,359 nM
same,GI50,PC-3 prostate,194 nM
same,TGI,PC-3 prostate,976 nM
same,GI50,NCI-H226 lung,386 nM
same,TGI,NCI-H226 lung,25.4 µM
same,GI50,SF-539 CNS,411 nM
same,TGI,SF-539 CNS,1470 nM
same,GI50,SF-295 CNS,264 nM
same,TGI,SF-295 CNS,1090 nM
same,GI50,UACC-257 melanoma,268 nM
same,TGI,UACC-257 melanoma,780 nM

# — PubChem BioAssay (NCI)
